pKi: −log10 of the molar value.

The target of this experiment is T1, human GPR39 receptor (Homo sapiens, UniProt O43194).
T1 construct: PC3 Cells, Expressing the Endogenous Human GPR39 Receptor; endogenous in cells; host or cells: PC3 (human prostate adenocarcinoma) cells
T1 sequence (O43194 1-453): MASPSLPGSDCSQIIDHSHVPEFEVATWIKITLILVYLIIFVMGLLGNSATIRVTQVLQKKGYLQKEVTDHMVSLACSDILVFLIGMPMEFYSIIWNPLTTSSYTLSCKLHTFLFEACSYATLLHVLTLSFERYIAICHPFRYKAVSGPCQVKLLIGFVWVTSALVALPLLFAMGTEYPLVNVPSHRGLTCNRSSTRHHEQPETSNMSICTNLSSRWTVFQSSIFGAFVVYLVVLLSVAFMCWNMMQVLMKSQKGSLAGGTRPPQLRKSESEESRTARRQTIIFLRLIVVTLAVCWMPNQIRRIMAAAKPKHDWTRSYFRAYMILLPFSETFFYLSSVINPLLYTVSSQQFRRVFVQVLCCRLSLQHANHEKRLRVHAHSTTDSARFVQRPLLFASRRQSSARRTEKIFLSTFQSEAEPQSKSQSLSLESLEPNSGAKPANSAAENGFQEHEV
Briefly: Measurement of intracellular calcium response in PC3 cells (FLIPR), antagonism of the C3 agonist response. The class given is cell-based. The following applies: functional pKi (modified Cheng-Prusoff), inhibition of the C3 (TC-G 1008) response at EC90, 30 μM ZnCl2, read-out: fpKi activity. Summed up: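 Potency was reported as fpKi, converted by modified Cheng-Prusoff from four-parameter IC50 fits against an EC90 C3 agonist challenge. Calcium-6 FLIPR readings used PC3 cells naturally expressing human GPR39, in pH 7.4 HEPES buffer containing 30 μM final ZnCl2. Score bands: +/± <5.2, + 5.2–5.9, ++ 6.0–6.5, +++ 6.6–7.2, ++++ ≥7.3.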
For `O=C(Nc1ccc(C(=O)N2CCC(C(F)(F)F)CC2)c(N2CCCC2)n1)C1CC1` [Example 107, N-[6-pyrrolidin-1-yl-5-[4-(trifluoromethyl)piperidine-1-carbonyl]pyridin-2-yl]Cyclopropanecarboxamide], the pKi was at least 7.30. For `CCCN1CCN(C(=O)c2ccc(NC(=O)C3CC3)cc2N2CCCCCC2)CC1` [Example 36, N-(3-(azepan-1-yl)-4-(4-propylpiperazine-1-carbonyl)phenyl)cyclopropanecarboxamide], the pKi is 6.60 to 7.20.

For `CN1CCN(C(=O)c2ccc(NC(=O)C3CC3)cc2N2CCCCCC2)C(c2cccs2)C1` (single isomer, unassigned) [Example 69a, N-(3-(azepan-1-yl)-4-(4-methyl-2-(thiophen-2-yl)piperazine-1-carbonyl)phenyl) cyclopropane carboxamide], the pKi was 5.20 to 5.90. With `Cn1c(Sc2ccccc2)nnc1-c1ccc(NC(=O)C2CC2)cc1N1CCCCCC1` [Example 110, N-[3-(azepan-1-yl)-4-(4-methyl-5-phenylsulfanyl-1,2,4-triazol-3-yl)phenyl]cyclopropanecarboxamide], the pKi is 6.60 to 7.20.

As for `O=C(Nc1ccc(C(=O)N2CCN(Cc3ccccc3F)CC2)c(N2CCCCCC2)c1)C1CC1` [Example 28, N-(3-(azepan-1-yl)-4-(4-(2-fluorobenzyl)piperazine-1-carbonyl)phenyl) Cyclopropanecarboxamide], the pKi is 6.60 to 7.20. Turning to `Cc1nnc(-c2ccc(NC(=O)C3CC3)cc2N2CCCCCC2)n1C` [Example 113, N-[3-(azepan-1-yl)-4-(4,5-dimethyl-1,2,4-triazol-3-yl)phenyl]cyclopropanecarboxamide], the pKi is 5.20 to 5.90. As for `CN1CCN(C(=O)c2ccc(NC(=O)C3CC3)cc2N2CCC3(COC3)C2)C(c2cccc(Cl)c2)C1` (stereo not drawn) [Example 212, N-[4-[2-(3-chlorophenyl)-4-methylpiperazine-1-carbonyl]-3-(2-oxa-7-azaspiro[3.4]octan-7-yl)phenyl]cyclopropanecarboxamide], the pKi is 6.60 to 7.20. Take `CCCN1CCN(C(=O)c2ccc(NC(=O)C3CC3)cc2NC2CCCC2)CC1` [Example 20, N-[3-(cyclopentylamino)-4-(4-propylpiperazine-1-carbonyl)phenyl]cyclopropanecarboxamide]: the pKi is 6.00 to 6.50.

Regarding `CN1CCN(C(=O)c2ccc(NC(=O)C3CC3)nc2N2CCCC(F)(F)C2)C(c2ccccc2)C1` (racemic) [Example 144, N-[6-(3,3-difluoropiperidin-1-yl)-5-(4-methyl-2-phenylpiperazine-1-carbonyl)pyridin-2-yl]cyclopropanecarboxamide], the pKi was 6.60 to 7.20. With `Cc1ccn(-c2cc(NC(=O)C3CC3)ccc2C(=O)N2CCC(C(F)(F)F)CC2)n1` [Example 156], the pKi was 6.60 to 7.20. As to `CN1CCN(C(=O)c2ccc(NC(=O)C3CC3)cc2N2CCCCCC2)C(c2ccsc2)C1` (racemic) [Example 70c, N-(3-(azepan-1-yl)-4-(4-methyl-2-(thiophen-3-yl)piperazine-1-carbonyl)phenyl)cyclopropane carboxamide], the pKi is 6.60 to 7.20. Regarding `CN1CCN(C(=O)c2ccc(-c3nnc(C4CC4)[nH]3)cc2N2CCCC2)C(c2ccccc2)C1` (single isomer, unassigned) [Example 151b, (2R or 2S) [4-(5-cyclopropyl-4H-1,2,4-triazol-3-yl)-2-pyrrolidin-1-ylphenyl]-(4-methyl-2-phenylpiperazin-1-yl)methanone], the pKi was 5.20 to 5.90. With `C[C@@H]1C[C@H](C)CN(c2cc(NC(=O)C3CC3)ccc2C(=O)N2CCS(=O)(=O)CC2)C1` [Example 67, Syn N-[3-[-3,5-dimethylpiperidin-1-yl]-4-(1,1-dioxo-1,4-thiazinane-4-carbonyl)phenyl]Cyclopropanecarboxamide], the pKi was at least 7.30. For the compound `CN1CCN(C(=O)c2ccc(NC(=O)C3CC3)cc2N2CCCC2)C(c2cncc(Cl)c2)C1` (racemic) [Example 172, N-[4-[2-(5-chloropyridin-3-yl)-4-methylpiperazine-1-carbonyl]-3-pyrrolidin-1ylphenyl]cyclopropanecarboxamide], the pKi was 6.60 to 7.20. With `CNC(=O)N1CCN(C(=O)c2ccc(NC(=O)C3CC3)cc2N2CCCC2)C(c2ccccc2)C1` (stereo not drawn) [Example 217, 4-[4-(cyclopropanecarbonylamino)-2-pyrrolidin-1-ylbenzoyl]-N-methyl-3-phenylpiperazine-1-carboxamide] the figure was 6.00 to 6.50; with `Cc1nnc(-c2ccc(C(=O)N3CCN(C)CC3c3ccccc3)c(N3CCCC3)c2)o1` (racemic) [Example 123, [4-(5-methyl-1,3,4-oxadiazol-2-yl)-2-pyrrolidin-1-ylphenyl]-(4-methyl-2-phenylpiperazin-1-yl)methanone], 5.20 to 5.90; with `C[C@@H]1C[C@@H](C)CN(c2cc(NC(=O)C3CC3)ccc2-c2nnc(Sc3ccccc3)n2C)C1` (relative stereo) [Example 114a, N-[3-(3,5-dimethylpiperidin-1-yl)-4-(4-methyl-5-phenylsulfanyl-1,2,4-triazol-3-yl)phenyl]cyclopropanecarboxamide], 6.60 to 7.20. In the case of `O=C(Nc1ccc(C(=O)N2CCCCC2c2nnnn2Cc2ccccc2)c(N2CCCCCC2)c1)C1CC1` (stereo not drawn) [Example 54, N-[3-(azepan-1-yl)-4-[2-(1-benzyltetrazol-5-yl)piperidine-1-carbonyl]phenyl]cyclopropanecarboxamide], the pKi was 6.60 to 7.20. `O=C(Nc1ccc(C(=O)N2CCN(Cc3cccc(F)c3)CC2)c(N2CCCCCC2)c1)C1CC1` [Example 26, N-(3-(azepan-1-yl)-4-(4-(3-fluorobenzyl)piperazine-1-carbonyl)phenyl) Cyclopropanecarboxamide]: the pKi was 6.60 to 7.20. Take `COc1ccccc1CN1CCN(C(=O)c2ccc(NC(=O)C3CC3)cc2N2CCCCCC2)CC1` [Example 27, N-(3-(azepan-1-yl)-4-(4-(2-methoxybenzyl)piperazine-1-carbonyl)phenyl) cyclopropanecarboxamide]: the pKi was 6.00 to 6.50. In the case of `Cc1noc(C)c1CN1CCN(C(=O)c2ccc(NC(=O)C3CC3)cc2N2CCCCCC2)C(c2ccccc2)C1` (stereo not drawn) [Example 81, N-[3-(azepan-1-yl)-4-[4-[(3,5-dimethyl-1,2-oxazol-4-yl)methyl]-2-phenylpiperazine-1-carbonyl]phenyl]cyclopropanecarboxamide], the pKi was 6.00 to 6.50. Regarding `CC1CCN(c2cc(NC(=O)C3CC3)ccc2C(=O)N2CCN(C)CC2c2ccccc2)C1` (single isomer, unassigned) [Example 64d, (2S, 3R) or (2R, 3S) or (2R, 3R) or (2S, 3S) N-[4-(4-methyl-2-phenylpiperazine-1-carbonyl)-3-(3-methylpyrrolidin-1-yl)phenyl] cyclopropanecarboxamide], the pKi is 6.00 to 6.50.

Take `O=C(Nc1ccc(C(=O)N2CCS(=O)(=O)CC2)c(N2CCCC(C(F)(F)F)C2)c1)C1CC1` (single isomer, unassigned) [Example 185a, N-[4-(1,1-dioxo-1,4-thiazinane-4-carbonyl)-3-[3R or 3S-(trifluoromethyl)piperidin-1-yl]phenyl]cyclopropanecarboxamide]: the pKi was 6.60 to 7.20. `O=C(Nc1ccc(C(=O)N2CCOCC2c2ccccc2)c(N2CCCC2)c1)C1CC1` (racemic) [Example 167, N-[4-(3-phenylmorpholine-4-carbonyl)-3-pyrrolidin-1-ylphenyl]cyclopropanecarboxamide]: the pKi is 6.60 to 7.20.
